From patent publication US9730447B2, “Fungicidal amides” (E I DU PONT DE NEMOURS AND COMPANY, priority 2013, dated 2017)

Legend:
Type in all cases: in vivo
[1] = system: Puccinia recondite f. sp. tritici; assay: Test D: preventive spray on wheat seedlings, Puccinia recondite f. sp. tritici (wheat leaf rust), visual disease rating; conditions: 100 = 100% disease control, 0 = no control, unmarked values
Procedure, shortened: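 Wheat seedlings sprayed to run-off with 40 ppm (160 g ai/ha) or 10 ppm (40 g ai/ha) suspension in acetone/water with 250 ppm surfactant, inoculated next day with leaf rust spores. After 24 h saturated at 20 °C then 6 days at 20 °C, visual rating of disease control (0–100) relative to controls.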

[2] = system: Erysiphe graminis f. sp. tritici; assay: Test E: preventive spray on wheat seedlings, Erysiphe graminis f. sp. tritici (wheat powdery mildew), visual disease rating; conditions: 100 = 100% disease control, 0 = no control, unmarked values
Procedure, shortened: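 Wheat seedlings were sprayed to run-off with 40 or 10 ppm suspension (160 or 40 g ai/ha) and dusted with spores the next day. They were then kept 8 days at 20 °C. Disease was rated visually as % control relative to untreated controls (0–100).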

Botrytis cinerea = assay: Test A: preventive spray on tomato seedlings, Botrytis cinerea (gray mold), visual disease rating; conditions: 100 = 100% disease control, 0 = no control relative to controls, unmarked values
Excerpt: General protocol for preparing test suspensions for Tests A-E: the test compounds were first dissolved in acetone in an amount equal to 3% of the final volume and then suspended at the desired concentration (in ppm) in acetone and purified water (50/50 mix by volume) containing 250 ppm of the surfactant Trem® 014 (polyhydric alcohol esters). The resulting test suspensions were then used in Tests A-E. Compounds were sprayed with either a 40 ppm or 10 ppm (*) test suspension to the point of run-off on the test plants which is the equivalent of a rate of 160 g ai/ha or 40 g ai/ha, respectively.
The test suspension was sprayed to the point of run-off on tomato seedlings. The following day the seedlings were inoculated with a spore suspension of Botrytis cinerea (the causal agent of gray mold on many crops) and incubated in a saturated atmosphere at 20° C. for 48 h, and moved to a growth chamber at 27° C. for 2 days, after which time visual disease ratings were made.
Results for Tests A-E are given in Table A. In the Table, a rating of 100 indicates 100% disease control and a rating of 0 indicates no disease control (relative to the controls). A dash (-) indicates no test results.

Septoria tritici = assay: Test C: preventive spray on wheat seedlings, Septoria tritici (wheat leaf blotch), visual disease rating; conditions: 100 = 100% disease control, 0 = no control, unmarked values
Procedure, shortened: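 Wheat seedlings sprayed to run-off at 40 ppm or 10 ppm (160 or 40 g ai/ha) in acetone/water with surfactant, inoculated with Septoria tritici spores next day. Held 48 h saturated at 24 °C, then 21 days at 20 °C. Visual rating scored as % disease control relative to controls.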

[3] = system: Stagonospora nodorum (also known as Septoria nodorum); assay: Test B: preventive spray on wheat seedlings, Stagonospora nodorum (wheat glume blotch), visual disease rating; conditions: 100 = 100% disease control, 0 = no control, unmarked values
Procedure, shortened: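 Compounds in acetone/water (50/50) with 250 ppm Trem 014 surfactant were sprayed to run-off at 40 ppm (160 g ai/ha) or 10 ppm (40 g ai/ha). Seedlings were inoculated with S. nodorum spores the next day, then held 48 h saturated at 20 °C and 6 days in a growth chamber at 20 °C. Visual rating as % disease control vs untreated.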

SMILES	Test D disease control rating [1] [%]	Test E disease control rating [2] [%]	Test A disease control rating (Botrytis cinerea) [%]	Test C disease control rating (Septoria tritici) [%]	Test B disease control rating [3] [%]
O=C(Nc1ccccc1-c1ccc(-n2ccc(-c3ccccc3)n2)nc1)c1ncccc1Cl [compound 53]	55	0	0	0	0
Cn1cc(C(=O)Nc2ccccc2-c2ccc(-n3ccc(Br)n3)nc2)c(C(F)F)n1 [compound 11]	100	99	100	100	100
O=C(Nc1ccccc1-c1ccc(-n2ccc(-c3ccccc3)n2)nc1)c1ccccc1C(F)(F)F [compound 42]	68	21	40	87	0
O=C(Nc1ccccc1-c1ccc(-n2ccc(C(F)(F)F)n2)nc1)c1ncccc1C(F)(F)F [compound 26]	99	100	88	100	90
Cc1ccc(-c2ccc(-c3ccccc3NC(=O)c3cn(C)nc3C(F)F)cn2)s1 [compound 21]	100	43	99	81	97
Cn1cc(C(=O)Nc2ccccc2-c2ccc(-n3cc(-c4cccc(F)c4)cn3)nc2)c(C(F)F)n1 [compound 5]	100	99	100	100	100
Cc1cc(-c2ccccc2NC(=O)c2ncccc2C(F)(F)F)cnc1-n1cc(Cl)cn1 [compound 64]	100	96	98	100	60
Cc1cnn(-c2ccc(-c3ccccc3NC(=O)c3ncccc3Cl)cn2)c1 [compound 46]	97	0	21	8	0
COc1cc(OC)cc(-c2cnn(-c3ccc(-c4ccccc4NC(=O)c4cn(C)nc4C(F)F)cn3)c2)c1 [compound 10]	100	97	100	100	100
Cc1cnn(-c2ccc(-c3ccccc3NC(=O)c3cn(C)nc3C(F)F)cn2)c1 [compound 45]	100	99	99	100	98
Cc1cc(-c2ccccc2NC(=O)c2ccccc2C(F)(F)F)cnc1-n1ccc(C(F)(F)F)n1 [compound 36]	100	99	28	100	98
O=C(Nc1ccccc1-c1ccc(-n2cc(Cl)cn2)nc1)c1ncccc1Cl [compound 67]	90	0	7	62	0
O=C(Nc1ccccc1-c1cnc(-n2ccc(-c3ccccc3)n2)c(F)c1)c1ccccc1C(F)(F)F [compound 80]	88	0	0	100	0
O=C(Nc1ccccc1-c1cnc(-n2ccc(Br)n2)c(F)c1)c1ccccc1C(F)(F)F [compound 79]	100	99	25	100	0
